Assay [1] deals with PKCδ (Homo sapiens, UniProt Q05655). Nature of the assay: lidocaine binding to and modulation of PKCδ (applicant's discovery, no method given). It counts as biochemical. The following applies: calcium independent PKC isozyme PKCδ; qualitative statement.
Assay [2] deals with calcium-activated, phospholipid-dependent protein kinase (PKC). The following applies: data suggesting; M. K. Tomoda et al., 1990; cited from earlier work.

Sequence of PKCδ (Q05655 whole entry): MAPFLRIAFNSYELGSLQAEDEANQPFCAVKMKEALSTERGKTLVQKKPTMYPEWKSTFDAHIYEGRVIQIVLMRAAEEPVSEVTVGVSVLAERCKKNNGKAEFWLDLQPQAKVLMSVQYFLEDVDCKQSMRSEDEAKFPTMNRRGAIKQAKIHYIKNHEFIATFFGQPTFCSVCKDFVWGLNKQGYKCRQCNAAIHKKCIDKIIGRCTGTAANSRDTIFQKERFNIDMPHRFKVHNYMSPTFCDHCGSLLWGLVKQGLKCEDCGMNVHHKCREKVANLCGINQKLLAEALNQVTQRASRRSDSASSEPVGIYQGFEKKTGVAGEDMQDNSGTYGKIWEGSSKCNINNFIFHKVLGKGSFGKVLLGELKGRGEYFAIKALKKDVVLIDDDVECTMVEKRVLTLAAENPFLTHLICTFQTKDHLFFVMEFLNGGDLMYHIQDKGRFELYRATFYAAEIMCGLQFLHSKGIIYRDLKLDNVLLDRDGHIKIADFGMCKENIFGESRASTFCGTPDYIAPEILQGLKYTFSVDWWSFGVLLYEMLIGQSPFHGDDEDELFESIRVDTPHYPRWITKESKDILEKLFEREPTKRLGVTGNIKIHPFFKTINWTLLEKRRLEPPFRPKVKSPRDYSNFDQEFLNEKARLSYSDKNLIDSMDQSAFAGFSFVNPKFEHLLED

As to `CCN(CC)CC(=O)Nc1c(C)cccc1C` [lidocaine, (2-diethylamino)-N-(2,6-dimethylphenyl)-acetamide], in assay [1], the “binding to and modulation of the effects of PKCδ” value was “binds to and modulates (e.g. inhibits)”. Besides, the “inhibition of calcium-activated, phospholipid-dependent protein kinase (PKC)” value in assay [2] is listed as “inhibits”.

Source of the values: US6391888B1, “Topical anesthetics useful for treating cancer” (Mayo Foundation for Medical Education and Research, priority 1999, dated 2002).
